According to article PMC7160673, “A Degenerate Peptide Library Approach to Reveal Sequence Determinants of Methyllysine-Driven Protein Interactions” (Frontiers in Cell and Developmental Biology, 2020):
Where no end group is shown, it is not given here. Me2a = asymmetric dimethyl on Arg; Peg = not defined here

Columns and labels:
Assay type in all cases: binding
[1] = tested on: 53BP1 TTD; assay: Histone peptide microarray, 53BP1 TTD; settings: 53BP1 TTD hits, average signal per peptide
Experimental: (§1) Peptide microarrays were fabricated using an Aushon 2470 microarrayer and used as described ([Cornett et al., 2017]) with the following modifications. Protein and antibody hybridization steps were performed in buffer containing 25 mM HEPES pH 7.5, 100 mM NaCl, 0.5% BSA (w/v), and 0.1% NP-40. Slides were washed 3 × 5 min in PBS supplemented with 0.1% Tween-20 between each hybridization step. Antibodies used were primary anti-GST (Sigma #7781, 1:2,000 dilution) and an AlexaFluor 647-labeled secondary antibody (Life Technologies A-21245, 1:5,000 dilution). […] Full lists of peptides queried by array analysis are in Supplementary Table S2.

[2] = tested on: CST 9733 (anti-H3K27me3); assay: Histone peptide microarray, CST 9733; settings: histone peptide array signal normalized to the highest peptide average per subarray, hits; CST 9733 LOT:14 dilution 1:5,000
Experimental: as §1

[3] = tested on: Abcam #ab8895, anti-H3K4me1; assay: Histone peptide microarray, Abcam ab8895; settings: Abcam ab8895 (anti-H3K4me1) hits, average signal per peptide
[4] = tested on: Active Motif #39161, anti-H3K9me3; assay: Histone peptide microarray, Active Motif 39161; settings: Active Motif 39161 (anti-H3K9me3) hits
[5] = tested on: Millipore #07-449, anti-H3K27me3; assay: Histone peptide microarray, Millipore 07-449; settings: Millipore 07-449 (anti-H3K27me3) hits, average signal per peptide
[6] = tested on: ABClonal #A2355, anti-H3K4me1; assay: Histone peptide microarray, ABclonal A2355; settings: Abclonal A2355 (anti-H3K4me1) hits
Experimental: as §1

Row | Substance | Avg Signal [1] | Avg Signal [2] | Avg Signal [3] | Avg Signal [4] | Avg Signal [5] | Avg Signal [6]
1 | ACitTKQTARKSTGGKAPRKQL-K(Biot)-NH2 [Peptide H3.1Cit2] | 0.1308 | 0.005497 | 0.01656 | 0.002403 | – | –
2 | AR(Me2a)TK(Me3)QTARKpSTGGKAPRKQL-K(Biot)-NH2 [H3.1R2me2aK4me3S10p] | 0.1482 | 0.01157 | 0.0003692 | 0.007954 | 0.02048 | –
3 | AR(Me2a)pTK(Me3)QTARK(Ac)STGGK(Ac)APRK(Ac)QL-K(Biot)-NH2 [H3.1R2me2aT3pK4me3K9acK14acK18ac] | 0.09934 | 0.0005148 | 0.003812 | 0.0001961 | 0.005728 | –
4 | AR(Me)TK(Me3)QTARK(Ac)STGGK(Ac)APRK(Ac)QL-K(Biot)-NH2 [H3.1R2me1K4me3K9acK14acK18ac] | 0.04917 | 0.009005 | 0.01244 | 0.006911 | 0.05381 | –
5 | AR(Me)TK(Me3)QTARKSTGGKAPRKQL-K(Biot)-NH2 [H3.1R2me1K4me3] | 0.08379 | 0.002343 | 0.01284 | – | 0.07195 | –
6 | ARTK(Ac)QTARKSTGGKAPRK(Ac)QL-K(Biot)-NH2 [H3.1K4acK18ac] | 0.07704 | – | 0.002862 | 0.0001961 | – | 0.001249
7 | ARTK(Me2)QTARK(Ac)STGGKAPRK(Ac)QL-K(Biot)-NH2 [H3.1K4me2K9acK18ac] | 0.5101 | – | 0.4062 | 0.009454 | – | 0.4042
8 | ARTK(Me2)QTARKSTGGKAPRKQL-K(Biot)-NH2 [Peptide H3.1K4me2] | 0.3009 | – | 0.3093 | 0.001961 | – | 0.3078
9 | ARTK(Me3)QTARKSTGGK(Ac)APRKQL-K(Biot)-NH2 [H3.1K4me3K14ac] | 0.1175 | 0.004624 | 0.0003256 | 0.009793 | 0.02658 | –
10 | ARTK(Me)QTARK(Ac)STGGK(Ac)APRK(Ac)QL-K(Biot)-NH2 [H3.1K4me1K9acK14acK18ac] | 0.194 | – | 0.9702 | 0.005174 | – | 0.8066
11 | ARTK(Me)QTARKSTGGKAPRKQL-K(Biot)-NH2 [Peptide H3.1K4me1] | 0.08871 | – | 0.89 | – | – | 0.7621
12 | ARTK(N3)QTARKSTGGKAPRKQL-K(Biot)-NH2 [Peptide H3.1K4N3] | 0.07618 | – | 0.03034 | – | – | 0.03523
13 | ARTKQTAR(Me2a)KSTGGKAPRKQL-Peg-Biot (chain 2 KSTGGKAPRKQL-{Peg-Biot}; not fully specified; reading uncertain) [Peptide H3.1R8me2a] | – | – | 0.06138 | 0.01209 | – | 0.000963
14 | ARTKQTARK(Me2)STGGKAPRKQLATKAARK(Me)SAPAT-Peg-Biot [H3.1K9me2K27me1] | – | – | 0.3474 | 0.02404 | 0.004141 | 0.05183
15 | ARTKQpTARK(Me3)STGGKAPRKQL-K(Biot)-NH2 [Peptide H3.1T6pK9me3] | 0.226 | 0.01471 | – | 0.3154 | 0.02132 | –
16 | ATKAARKSAPATGGVK(Ac)KPHRYRPG-GK(Biotin)-OH [Peptide H3.1K36ac] | – | – | – | 0.009457 | 0.004604 | 0.001664
17 | ATKAARKSAPATGGVK(Me2)KPHRYRPG-GK(Biotin)-OH [Peptide H3.1K36me2] | – | – | 0.1144 | 0.01273 | 0.005826 | 0.06205

Row | Substance | Avg Signal [1] | Avg Signal [2] | Avg Signal [3] | Avg Signal [4] | Avg Signal [5] | Avg Signal [6]
18 | ATKAARKSAPATGGVK(Me)KPHRYRPG-GK(Biotin)-OH [Peptide H3.1K36me1] | – | – | 0.0206 | 0.001641 | 0.002073 | 0.006039
19 | Ac-APRK(Ac)QLATK(Ac)AARK(Ac)pSAPSTGG-Peg-Biot [H3.3K18acK23acK27acS28p] | – | – | – | 0.004946 | 0.0009622 | 0.0001631
20 | Ac-APRK(Me3)QLATKAARKSAPSTGGVK(Me3)KPHRY-GG-K(Biot)-NH2 [H3.3K18me3K36me3] | 0.1772 | 0.04154 | 0.006536 | 0.4275 | 0.2482 | –
21 | Ac-APRKQLATK(Me)AARKSAPATGG-Peg-K(Biot)-NH2 [Peptide H3.1K23me1] | – | – | 0.124 | 0.004448 | 0.003618 | 0.3577
22 | Ac-IAQDFK(Me2)TDLRF-Peg-K(Biot)-NH2 [Peptide H3.1K79me2] | 0.2119 | – | – | – | 0.002961 | 0.0001532
23 | Ac-IAQDFK(Me3)TDLRF-Peg-K(Biot)-NH2 [Peptide H3.1K79me3] | 0.03452 | – | 0.06064 | – | – | 0.03778
24 | Ac-SGRGK(Ac)GGK(Me)GLGK(Ac)GGAKRHRKVLR-Peg-Biot [H4K5acK8me1K12ac] | – | – | 0.003463 | 0.01545 | 0.005126 | 0.01786
25 | Ac-SGRGK(Ac)GGKGLGKGGAKRHRK(Ac)VLR-Peg-Biot [Peptide H4K5acK20ac] | – | – | – | 0.0005946 | – | 0.0007556
26 | Ac-SGRGK(Ac)QGGK(Ac)ARAK(Ac)AK(Ac)TR-Peg-Biot [H2AK5acK9acK13acK15ac] | 0.0113 | – | – | 0.005245 | 0.001671 | 0.0056
27 | Ac-SGRGK(Ac)QGGKARAKAKTR-Peg-Biot [Peptide H2AK5ac] | 0.06555 | – | 0.04469 | – | – | 0.0257
28 | Ac-SGRGK(Me)GGKGLGKGGAKRHRKVLR-Peg-Biot [Peptide H4K5me1] | – | – | 0.01832 | 0.04055 | 0.002242 | 0.006523
29 | Ac-SGRGKGGK(Me)GLGKGGAKRHRKVLR-Peg-Biot [Peptide H4K8me1] | – | – | 0.01379 | 0.0007159 | – | 0.02626
30 | Ac-SGRGKGGKGLGK(Ac)GGAKRHRKVLR-Peg-Biot [Peptide H4K12ac] | 0.1511 | 0.000354 | 0.001961 | 0.01336 | – | –
31 | Biot-Peg-GKKATQApSQEY-OH [Peptide H2A.XS139p] | – | – | 0.05956 | – | 0.0003137 | 0.02695
32 | H3.1.1(1-32) | – | – | 0.3398 | – | 0.003069 | 0.04529
33 | PEPAK(Me3)SAPAPKKGSKKAVTKAQKK-Peg-Biot [Peptide H2BK5me3] | 0.04404 | 0.00351 | – | 0.03906 | 0.1635 | –
34 | PEPAKSAPAPKK(Ac)GSK(Ac)K(Ac)AVTK(Ac)AQKK-Peg-Biot [H2BK12acK15acK16acK20ac] | – | – | – | 0.009853 | – | 0.0003507
